Source: patent US20240285571A1, “METHODS OF TREATING BONE INFECTIONS” (MICROBION CORPORATION, priority 2020, published 2024)
Converted amounts (≈) assume the structure as drawn. Like-named read-outs stand apart in the source and are kept apart here. One block for each compound: values may come before it.

What was measured:
Format in all cases: cell-based
Escherichia coli = assay: Broth microdilution MIC (Example 6); conditions: Escherichia coli, read-out: MIC
Outline: (§1)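 Activity was measured by CLSI broth microdilution using 2-fold serial dilutions and an inoculum of about 5×10^5 CFU/mL. Plates were incubated at 35 °C for 16 to 20 hr. The MIC is the lowest drug concentration that prevented visible growth.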

Klebsiella pneumoniae = assay: Broth microdilution MIC (Example 6); conditions: Klebsiella pneumoniae, read-out: MIC
Outline: as §1

Pseudomonas aeruginosa = assay: Broth microdilution MIC (Example 6); conditions: Pseudomonas aeruginosa, read-out: MIC
Outline: as §1

Acinetobacter baumannii = assay: Broth microdilution MIC (Example 6); conditions: Acinetobacter baumannii, read-out: MIC
Outline: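 CLSI broth microdilution in cation-adjusted Mueller Hinton broth, test agents 0.06-64 μg/mL from DMSO stocks, inoculum approx. 5×10^5 CFU/mL. Incubation 35° C for 16–20 hr; MIC taken as lowest concentration inhibiting visible growth.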

[1] = system: relevant ATCC QC organisms; assay: Broth microdilution MIC, QC (Example 6); conditions: read-out: MIC
Outline: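 QC strains were tested per CLSI broth microdilution in cation-adjusted Mueller Hinton broth, with Ca2+ supplemented for daptomycin, at about 5×10^5 CFU/mL. Incubation was at 35° C for 16–20 hr, or 24 hr for vancomycin against S. aureus. The MIC was the lowest concentration inhibiting visible growth.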

[2] = ATCC35218, E. coli ATCC 35218, ESBL
[3] = ATCCBAA2471, E. coli ATCC BAA-2471, NDM
[4] = ATCCBAA1705, K. pneumoniae ATCC BAA-1705, ESBL/KPC
[5] = K. pneumoniae CDC 113, ESBL/KPC
[6] = K. pneumoniae CDC 115, ESBL/KPC
[7] = K. pneumoniae CDC 120, ESBL/KPC
[8] = K. pneumoniae CDC 126, ESBL/KPC
[9] = K. pneumoniae CDC 129, ESBL/KPC
[10] = K. pneumoniae CDC 135, ESBL/VIM
[11] = K. pneumoniae CDC 138, ESBL/NDM
[12] = K. pneumoniae CDC 158, ESBL/NDM/OXA
[13] = P. aeruginosa isolate CDC 230, β-lactamase type VIM/OXA
[14] = P. aeruginosa isolate CDC 231, β-lactamase type KPC/OXA
[15] = P. aeruginosa isolate CDC 241, β-lactamase type IMP/OXA
[16] = P. aeruginosa isolate CDC 246, β-lactamase type NDM/OXA
[17] = P. aeruginosa isolate CDC 250, β-lactamase type NDM/OXA
[18] = P. aeruginosa isolate CDC 356, β-lactamase type KPC
[19] = P. aeruginosa isolate CDC 439, β-lactamase type IMP
[20] = P. aeruginosa isolate CDC 444, β-lactamase type VIM
[21] = P. aeruginosa isolate CDC 457, β-lactamase type VIM
[22] = P. aeruginosa isolate CDC 516, β-lactamase type KPC/AmpC
[23] = A. baumannii isolate CDC 273, β-lactamase type ESBL/OXA
[24] = A. baumannii isolate CDC 274, β-lactamase type ESBL/OXA
[25] = A. baumannii isolate CDC 275, β-lactamase type ESBL/OXA
[26] = A. baumannii isolate CDC 277, β-lactamase type ESBL/OXA
[27] = A. baumannii isolate CDC 284, β-lactamase type ESBL/OXA
[28] = A. baumannii isolate CDC 307, β-lactamase type OXA
[29] = A. baumannii isolate CDC 308, β-lactamase type ESBL/OXA
[30] = A. baumannii isolate CDC 311, β-lactamase type OXA
[31] = A. baumannii isolate CDC 312, β-lactamase type OXA
[32] = A. baumannii isolate CDC 313, β-lactamase type ESBL/OXA
[33] = NCTC13304, A. baumannii isolate NCTC 13304, β-lactamase type OXA
[34] = Escherichia coli, ATCC25922, E. coli ATCC 25922
[35] = Escherichia coli, ATCC35218, E. coli ATCC 35218
[36] = Klebsiella pneumoniae, ATCCBAA1705, K. pneumoniae ATCC BAA-1705
[37] = Pseudomonas aeruginosa, ATCC27853, P. aeruginosa ATCC 27853

SMILES: C[C@@H](O)[C@H]1C(=O)N2C(C(=O)O)=C(S[C@@H]3CN[C@H](C(=O)N(C)C)C3)[C@H](C)[C@H]12 [Meropenem]
- MIC (Escherichia coli; [2]): ≤ 0.008 µg/mL
- MIC (Escherichia coli; [3]): > 8 µg/mL
- MIC (Escherichia coli; E. coli CDC 114, ESBL/KPC): 2 µg/mL (≈ 5.22 µM)
- MIC (Escherichia coli; E. coli CDC 118, ESBL/NDM): 0.06 µg/mL (≈ 0.156 µM)
- MIC (Escherichia coli; E. coli CDC 435, NDM): > 8 µg/mL
- MIC (Escherichia coli; E. coli CDC 451, KPC): 1 µg/mL (≈ 2.61 µM)
- MIC (Escherichia coli; E. coli CDC 503, ESBL/NDM): 8 µg/mL (≈ 20.9 µM)
- MIC (Escherichia coli; E. coli MMX 5745, KPC): 2 µg/mL (≈ 5.22 µM)
- MIC (Escherichia coli; E. coli MMX 5755, ESBL): 0.015 µg/mL (≈ 0.0391 µM)
- MIC (Escherichia coli; E. coli MMX 5756, ESBL): ≤ 0.008 µg/mL
- MIC (Escherichia coli; E. coli MMX 5758, ESBL): ≤ 0.008 µg/mL
- MIC (Klebsiella pneumoniae; [4]): 8 µg/mL (≈ 20.9 µM)
- MIC (Klebsiella pneumoniae; K. pneumoniae CDC 112, KPC): > 8 µg/mL
- MIC (Klebsiella pneumoniae; [5]): > 8 µg/mL
- MIC (Klebsiella pneumoniae; [6]): > 8 µg/mL
- MIC (Klebsiella pneumoniae; [7]): > 8 µg/mL
- MIC (Klebsiella pneumoniae; [8]): 4 µg/mL (≈ 10.4 µM)
- MIC (Klebsiella pneumoniae; [9]): 8 µg/mL (≈ 20.9 µM)
- MIC (Klebsiella pneumoniae; [10]): 1 µg/mL (≈ 2.61 µM)
- MIC (Klebsiella pneumoniae; [11]): > 8 µg/mL
- MIC (Klebsiella pneumoniae; [12]): > 8 µg/mL
- MIC (Klebsiella pneumoniae; K. pneumoniae MMX 9029, ESBL): 0.015 µg/mL (≈ 0.0391 µM)
- MIC (Pseudomonas aeruginosa; [13]): > 8 µg/mL
- MIC (Pseudomonas aeruginosa; [14]): > 8 µg/mL
- MIC (Pseudomonas aeruginosa; [15]): > 8 µg/mL
- MIC (Pseudomonas aeruginosa; [16]): > 8 µg/mL
- MIC (Pseudomonas aeruginosa; [17]): > 8 µg/mL
- MIC (Pseudomonas aeruginosa; [18]): > 8 µg/mL
- MIC (Pseudomonas aeruginosa; [19]): > 8 µg/mL
- MIC (Pseudomonas aeruginosa; [20]): > 8 µg/mL
- MIC (Pseudomonas aeruginosa; [21]): > 8 µg/mL
- MIC (Pseudomonas aeruginosa; [22]): > 8 µg/mL
- MIC (Pseudomonas aeruginosa; P. aeruginosa isolate CDC 518, β-lactamase type KPC/AmpC): > 8 µg/mL
- MIC (Acinetobacter baumannii; [23]): > 8 µg/mL
- MIC (Acinetobacter baumannii; [24]): > 8 µg/mL
- MIC (Acinetobacter baumannii; [25]): > 8 µg/mL
- MIC (Acinetobacter baumannii; [26]): > 8 µg/mL
- MIC (Acinetobacter baumannii; [27]): > 8 µg/mL
- MIC (Acinetobacter baumannii; [28]): 8 µg/mL
- MIC (Acinetobacter baumannii; [29]): 8 µg/mL
- MIC (Acinetobacter baumannii; [30]): > 8 µg/mL
- MIC (Acinetobacter baumannii; [31]): 4 µg/mL
- MIC (Acinetobacter baumannii; [32]): > 8 µg/mL
- MIC (Acinetobacter baumannii; [33]): > 8 µg/mL
- MIC [1, 34]: ≤ 0.008 µg/mL
- MIC [1, 35]: ≤ 0.008 µg/mL
- MIC [1, 36]: 8 µg/mL
- MIC [1, 37]: 0.25 µg/mL

- MIC (Escherichia coli; [2]): 1 µg/mL (≈ 1.71 µM)
- MIC (Escherichia coli; [3]): 64 µg/mL (≈ 109 µM)
- MIC (Escherichia coli; E. coli CDC 114, ESBL/KPC): 1 µg/mL (≈ 1.71 µM)
- MIC (Escherichia coli; E. coli CDC 118, ESBL/NDM): > 64 µg/mL
- MIC (Escherichia coli; E. coli CDC 435, NDM): > 64 µg/mL
- MIC (Escherichia coli; E. coli CDC 451, KPC): 4 µg/mL (≈ 6.83 µM)
- MIC (Escherichia coli; E. coli CDC 503, ESBL/NDM): > 64 µg/mL
- MIC (Escherichia coli; E. coli MMX 5745, KPC): 0.5 µg/mL (≈ 0.854 µM)
- MIC (Escherichia coli; E. coli MMX 5755, ESBL): 16 µg/mL (≈ 27.3 µM)
- MIC (Escherichia coli; E. coli MMX 5756, ESBL): 64 µg/mL (≈ 109 µM)
- MIC (Escherichia coli; E. coli MMX 5758, ESBL): 1 µg/mL (≈ 1.71 µM)
- MIC (Klebsiella pneumoniae; [4]): 16 µg/mL (≈ 27.3 µM)
- MIC (Klebsiella pneumoniae; K. pneumoniae CDC 112, KPC): 16 µg/mL (≈ 27.3 µM)
- MIC (Klebsiella pneumoniae; [5]): 16 µg/mL (≈ 27.3 µM)
- MIC (Klebsiella pneumoniae; [6]): 0.5 µg/mL (≈ 0.854 µM)
- MIC (Klebsiella pneumoniae; [7]): 16 µg/mL (≈ 27.3 µM)
- MIC (Klebsiella pneumoniae; [8]): 2 µg/mL (≈ 3.42 µM)
- MIC (Klebsiella pneumoniae; [9]): 32 µg/mL (≈ 54.6 µM)
- MIC (Klebsiella pneumoniae; [10]): 16 µg/mL (≈ 27.3 µM)
- MIC (Klebsiella pneumoniae; [11]): > 64 µg/mL
- MIC (Klebsiella pneumoniae; [12]): 2 µg/mL (≈ 3.42 µM)
- MIC (Klebsiella pneumoniae; K. pneumoniae MMX 9029, ESBL): 0.5 µg/mL (≈ 0.854 µM)
- MIC (Pseudomonas aeruginosa; [13]): > 64 µg/mL
- MIC (Pseudomonas aeruginosa; [14]): 8 µg/mL (≈ 13.7 µM)
- MIC (Pseudomonas aeruginosa; [15]): 32 µg/mL (≈ 54.6 µM)
- MIC (Pseudomonas aeruginosa; [16]): > 64 µg/mL
- MIC (Pseudomonas aeruginosa; [17]): > 64 µg/mL
- MIC (Pseudomonas aeruginosa; [18]): 2 µg/mL (≈ 3.42 µM)
- MIC (Pseudomonas aeruginosa; [19]): > 64 µg/mL
- MIC (Pseudomonas aeruginosa; [20]): > 64 µg/mL
- MIC (Pseudomonas aeruginosa; [21]): 2 µg/mL (≈ 3.42 µM)
- MIC (Pseudomonas aeruginosa; [22]): 2 µg/mL (≈ 3.42 µM)
- MIC (Acinetobacter baumannii; [23]): > 64 µg/mL
- MIC (Acinetobacter baumannii; [24]): 16 µg/mL
- MIC (Acinetobacter baumannii; [25]): > 64 µg/mL
- MIC (Acinetobacter baumannii; [26]): 16 µg/mL
- MIC (Acinetobacter baumannii; [27]): 32 µg/mL
- MIC (Acinetobacter baumannii; [28]): > 64 µg/mL
- MIC (Acinetobacter baumannii; [29]): > 64 µg/mL
- MIC (Acinetobacter baumannii; [30]): > 64 µg/mL
- MIC (Acinetobacter baumannii; [31]): 1 µg/mL
- MIC (Acinetobacter baumannii; [32]): 4 µg/mL
- MIC (Acinetobacter baumannii; [33]): 0.5 µg/mL
- MIC [1, 34]: 1 µg/mL
- MIC [1, 35]: 1 µg/mL
- MIC [1, 36]: 16 µg/mL
- MIC [1, 37]: 2 µg/mL
SMILES: NCC[C@H](O)C(=O)N[C@@H]1C[C@H](N)[C@@H](O[C@H]2O[C@H](CN)[C@@H](O)[C@H](O)[C@H]2O)[C@H](O)[C@H]1O[C@H]1O[C@H](CO)[C@@H](O)[C@H](N)[C@H]1O [Amikacin]
